Test results as given in article PMC9889419 (Pharmacological Reports, 2022).
Structures can show the parent of a compound that is named as a salt. Where two headings read alike, the source gives them in different places.

Legend:
[1] = system: Na+ channel (site 2); assay: Radioligand binding; parameters: species or system rat
[2] = system: mice
[3] = system: CYP3A1 (pregnane X receptor); assay: In vitro metabolic gene induction studies; type: cell-based, rat
Procedure: Test 28 - In Vitro Metabolic Gene lnduction Studies
:.!,iIir:- i- :: ar!-'{}-: i
Solvent Code: DMSO Solvent Prep: Unit: uM
Cell line source: Puracyp Molecular 257.7590
Date Staded: 05+eb-20'10 Date Completed: 15-Feb-2010 Weight:
Reference: Lamb bool#8 pg. 77 […]
lsoform Code: CYP3A1 Cell line: RPXR lnduc60n mechanism:pregnane X receptor
Concentration lnduction Cell […]
Note: Box checked if data is significantty different.
Max induction 2 fold @ 200uM
(calculated): signlficant decrease in vlabllity at this conc€nbaffon in vitro.
(1 picture or pasted object on this page, not shown here)

[4] = system: rats; type: in vivo; conditions: ip
[5] = system: mice; assay: Picrotoxin-induced seizures; type: in vivo; conditions: ip
[6] = system: mice; assay: 6 Hz test; type: in vivo; conditions: mice; for ED50: Mus musculus
[7] = target: 5-HT2B (Homo sapiens, UniProt P41595); assay: Radioligand binding
Procedure: (§1) Radioligand binding. Radioligand binding assays were performed at Eurofins CEREP (France). The results are expressed as a percent of control specific binding (measured specific binding*100/control specific binding) and as a percent inhibition of control specific binding (100-(measured specific binding*100)/control specific binding) obtained in the presence of the test compounds. The IC50 values (concentration causing a half-maximal inhibition of control specific binding) and Hill coefficients (nH) were determined by non-linear regression analysis of the competition curves generated with mean replicate values using Hill equation curve fitting (Y = D + [A-D]/[1 + (C/C50)^nH], where Y = specific binding, A = left asymptote of the curve, D = right asymptote of the curve, C = compound concentration, C50 = IC50, and nH = slope factor). This analysis was performed using software developed at Cerep (Hill software) and validated by comparison with data generated by the commercial software SigmaPlot® 4.0 for Windows® (© 1997 by SPSS Inc.). The inhibition constants (Ki) were calculated using the Cheng Prusoff equation (Ki = IC50/[1 + L/KD], where L = concentration of radioligand in the assay, and KD = affinity of the radioligand for the receptor). A scatchard plot is used to determine the Kd.

[8] = target: T1, M4 (Homo sapiens, UniProt P08173); assay: Radioligand binding
T1 sequence (P08173 1-479): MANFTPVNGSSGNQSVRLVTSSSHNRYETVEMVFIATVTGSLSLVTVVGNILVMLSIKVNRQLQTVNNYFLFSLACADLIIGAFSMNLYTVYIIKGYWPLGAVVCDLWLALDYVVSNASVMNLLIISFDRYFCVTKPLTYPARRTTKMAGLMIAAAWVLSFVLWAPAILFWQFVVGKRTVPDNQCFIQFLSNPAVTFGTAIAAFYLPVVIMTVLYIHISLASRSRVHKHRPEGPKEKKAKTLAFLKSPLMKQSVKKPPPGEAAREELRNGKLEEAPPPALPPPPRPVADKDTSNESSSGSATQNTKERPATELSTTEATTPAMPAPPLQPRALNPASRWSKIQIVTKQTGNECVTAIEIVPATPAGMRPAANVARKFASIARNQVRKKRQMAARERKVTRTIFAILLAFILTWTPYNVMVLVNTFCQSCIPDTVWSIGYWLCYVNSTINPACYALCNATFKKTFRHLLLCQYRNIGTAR
Procedure: as §1

[9] = target: 5-HT transporter (Homo sapiens, UniProt P31645); assay: Radioligand binding
Procedure: as §1

[10] = system: rats; type: in vivo; conditions: ip; remark: listed apart in the source
[11] = system: mice; assay: Formalin test (first screening); type: in vivo; conditions: ip
[12] = Degradation kinetics under basic conditions; type: physicochemical; conditions: 70.0 ± 0.5 °C, pH 9.90, 1,4-dioxane 20% v/v
Procedure: Chromatographic conditions. The liquid chromatography system Merck-Hitachi LaChrom Elite, equipped with a LiChroSpher RP-18 (250 × 4.6 mm; particle size 5 µm) column from Merck was used. Isocratic elution using a mobile phase composed of phosphate buffer pH = 4.36 and acetonitrile (40:60, v/v) at a flow rate of 1 mL min^−1 at 25 °C and single-wavelength UV detection at 260 nm was applied for the analysis. The injection volume was 20 µL.
Kinetic studies. […] After 5 min, first 50 µL sample was taken using a Hamilton syringe. The sample was diluted with 100 µL of pH = 4.36 phosphate buffer and frozen at − 18 °C. The reaction was conducted for 1606 h with samples taken at selected time intervals. After the experiment was finished, the samples have been defrosted and analyzed using the RP-HPLC method described above.

[13] = Approximate solubility tests; type: physicochemical; conditions: pH 9.9 borate buffer
Procedure: Borate buffer pH = 9.9 was selected as one of standard buffers at this pH range. […] Initially, three organic modifiers were considered: ethanol, dimethyl sulfoxide (DMSO) and 1,4-dioxane. […] Finally, dioxane was selected due to its higher boiling point, which reduced the risk of evaporation during a prolonged experiment. During the experiment, three degradation products were observed (tR = 13 min, tR = 15 min and tR = 17 min).

[14] = target: T2, hNav1.7 sodium channel (Homo sapiens, UniProt Q15858); assay: Nav channel electrophysiology (IonWorks Quattro); type: cell-based
T2 construct: host or cells: CHO cells

[15] = 0.1 μM, read-out: % of control specific binding
[16] = 1 μM, read-out: % of control specific binding
[17] = 10 μM, read-out: % of control specific binding
[18] = 3 μM, read-out: % of control specific binding

5-HT transporter, sequence (P31645 whole entry): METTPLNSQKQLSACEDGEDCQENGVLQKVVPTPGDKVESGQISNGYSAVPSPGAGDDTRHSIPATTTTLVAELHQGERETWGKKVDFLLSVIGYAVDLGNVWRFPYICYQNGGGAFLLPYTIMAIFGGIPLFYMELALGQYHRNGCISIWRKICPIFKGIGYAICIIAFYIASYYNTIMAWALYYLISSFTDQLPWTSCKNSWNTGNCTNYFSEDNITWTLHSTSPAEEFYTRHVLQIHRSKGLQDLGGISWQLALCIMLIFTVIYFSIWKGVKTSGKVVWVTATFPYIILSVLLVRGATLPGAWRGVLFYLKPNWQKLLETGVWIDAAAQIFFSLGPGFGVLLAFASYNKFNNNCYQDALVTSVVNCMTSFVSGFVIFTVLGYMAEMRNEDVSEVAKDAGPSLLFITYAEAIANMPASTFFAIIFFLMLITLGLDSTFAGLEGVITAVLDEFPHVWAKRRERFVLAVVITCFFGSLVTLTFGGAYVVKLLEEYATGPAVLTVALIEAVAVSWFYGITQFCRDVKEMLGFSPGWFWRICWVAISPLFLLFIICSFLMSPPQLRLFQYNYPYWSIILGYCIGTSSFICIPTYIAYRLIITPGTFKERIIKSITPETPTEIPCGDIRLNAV
T2 sequence (Q15858 whole entry): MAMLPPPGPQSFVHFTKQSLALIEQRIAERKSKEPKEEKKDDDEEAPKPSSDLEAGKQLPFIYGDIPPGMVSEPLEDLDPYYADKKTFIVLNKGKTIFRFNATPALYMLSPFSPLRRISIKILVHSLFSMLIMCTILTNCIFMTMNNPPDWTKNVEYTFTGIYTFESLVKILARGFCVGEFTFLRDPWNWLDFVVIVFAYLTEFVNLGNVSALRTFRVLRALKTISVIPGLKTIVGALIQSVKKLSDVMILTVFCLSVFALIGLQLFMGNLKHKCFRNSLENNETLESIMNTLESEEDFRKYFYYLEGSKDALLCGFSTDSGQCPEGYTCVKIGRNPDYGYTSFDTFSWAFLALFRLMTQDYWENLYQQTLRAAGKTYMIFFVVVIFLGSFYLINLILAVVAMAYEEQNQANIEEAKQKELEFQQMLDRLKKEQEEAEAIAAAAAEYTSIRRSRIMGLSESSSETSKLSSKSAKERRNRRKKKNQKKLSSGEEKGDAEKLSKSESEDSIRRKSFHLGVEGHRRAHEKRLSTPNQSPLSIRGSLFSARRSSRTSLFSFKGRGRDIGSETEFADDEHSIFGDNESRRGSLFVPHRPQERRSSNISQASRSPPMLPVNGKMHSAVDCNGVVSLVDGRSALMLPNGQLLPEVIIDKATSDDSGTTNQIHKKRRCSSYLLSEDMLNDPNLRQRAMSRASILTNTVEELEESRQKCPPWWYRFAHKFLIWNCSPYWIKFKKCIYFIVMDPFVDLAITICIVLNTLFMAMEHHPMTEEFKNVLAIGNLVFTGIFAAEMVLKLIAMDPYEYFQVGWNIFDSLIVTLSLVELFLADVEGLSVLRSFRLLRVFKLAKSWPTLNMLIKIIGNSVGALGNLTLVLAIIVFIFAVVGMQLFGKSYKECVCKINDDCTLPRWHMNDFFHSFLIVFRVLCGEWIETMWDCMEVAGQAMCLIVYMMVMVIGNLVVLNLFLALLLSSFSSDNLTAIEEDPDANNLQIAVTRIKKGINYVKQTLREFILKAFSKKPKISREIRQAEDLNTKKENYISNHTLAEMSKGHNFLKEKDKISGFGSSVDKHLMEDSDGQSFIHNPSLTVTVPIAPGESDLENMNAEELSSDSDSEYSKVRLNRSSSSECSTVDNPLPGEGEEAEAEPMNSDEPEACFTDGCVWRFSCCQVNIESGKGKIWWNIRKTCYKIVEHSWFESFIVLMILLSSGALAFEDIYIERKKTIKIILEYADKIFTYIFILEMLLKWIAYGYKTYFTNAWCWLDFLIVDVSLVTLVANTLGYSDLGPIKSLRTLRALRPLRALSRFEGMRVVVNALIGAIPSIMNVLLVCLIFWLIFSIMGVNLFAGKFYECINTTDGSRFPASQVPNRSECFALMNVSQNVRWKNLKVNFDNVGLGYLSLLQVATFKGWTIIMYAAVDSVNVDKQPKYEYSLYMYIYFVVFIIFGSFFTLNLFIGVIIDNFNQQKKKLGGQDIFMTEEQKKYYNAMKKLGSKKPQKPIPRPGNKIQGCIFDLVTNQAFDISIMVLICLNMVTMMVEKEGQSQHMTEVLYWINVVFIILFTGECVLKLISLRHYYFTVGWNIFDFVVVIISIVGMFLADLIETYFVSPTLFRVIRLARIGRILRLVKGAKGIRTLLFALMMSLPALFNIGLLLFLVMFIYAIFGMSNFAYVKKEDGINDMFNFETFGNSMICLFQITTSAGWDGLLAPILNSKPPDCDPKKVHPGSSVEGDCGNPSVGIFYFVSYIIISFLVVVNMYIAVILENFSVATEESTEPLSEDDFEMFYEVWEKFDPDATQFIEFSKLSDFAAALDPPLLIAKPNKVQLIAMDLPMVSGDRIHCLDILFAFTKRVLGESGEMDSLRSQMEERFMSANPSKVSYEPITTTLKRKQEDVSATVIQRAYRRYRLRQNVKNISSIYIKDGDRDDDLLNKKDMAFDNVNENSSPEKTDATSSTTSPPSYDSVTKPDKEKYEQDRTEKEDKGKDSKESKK
5-HT2B, sequence (P41595 whole entry): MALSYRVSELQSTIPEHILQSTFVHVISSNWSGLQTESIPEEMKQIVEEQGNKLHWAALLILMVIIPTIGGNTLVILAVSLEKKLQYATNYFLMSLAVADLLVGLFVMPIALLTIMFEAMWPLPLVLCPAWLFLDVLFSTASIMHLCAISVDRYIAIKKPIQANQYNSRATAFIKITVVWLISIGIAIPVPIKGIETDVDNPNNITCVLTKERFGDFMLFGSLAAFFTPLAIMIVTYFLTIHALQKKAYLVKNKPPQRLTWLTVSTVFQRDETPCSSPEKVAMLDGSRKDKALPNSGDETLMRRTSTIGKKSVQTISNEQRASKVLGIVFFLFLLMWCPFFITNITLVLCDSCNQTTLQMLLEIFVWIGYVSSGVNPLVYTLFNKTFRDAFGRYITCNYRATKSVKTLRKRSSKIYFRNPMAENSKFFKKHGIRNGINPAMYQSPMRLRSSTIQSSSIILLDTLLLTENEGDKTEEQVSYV

Which results are given for `CCC(CO)NCCOc1c(C)cccc1Cl` (stereo not shown) [Compound 4, R,S-2-((2-(2-chloro-6-methylphenoxy)ethyl)amino)butan-1-ol]?
% of control specific binding ([1]; 100 μM): 11.6%; MES TPE ([2]; female mice, ip): 0.25 h; MES ED50 ([2]; female mice, ip, […]): 11.64 (10.55–12.47) mg/kg; MES ED50 ([2]; mice, ip, […]): 21.44 (18.63–25.32) mg/kg; MES PI ([2]; mice, po): 6.12; MES TPE ([2]; mice, po): 0.5 h; MES ED50 ([2]; mice, po, 0.5 h): 58.13 (45.58–68.93) mg/kg; Max induction (calculated) ([3]; @ 200uM): 2 fold; EC50 ([3]; RPXR cell line, read-out: EC50 (calculated)): 74 µM; Hippocampal kindling avg. seizure score by Racine (0–5) ([4]; at 40 mg/kg, 0.25–2.25 h): 5; Picrotoxin-induced seizures ED50 [5]: > 70 mg/kg; 6 Hz ED50 ([6]; 32 mA, ip): 32.4 (28.4–36.0) mg/kg; 6 Hz TPE ([6]; 32 mA, ip): 0.25 h; 6 Hz ED50 ([6]; 44 mA, ip): 29.75 (28.3–31.5) mg/kg; 6 Hz TPE ([6]; 44 mA, ip): 0.25 h; % of control specific binding ([7]; 100 μM): 2.3%; % of control specific binding ([8]; 100 μM): 30.5%; % of control specific binding ([9]; 100 μM): 5.1%; TD97 [10]: 40.53 mg/kg; Pilocarpine-induced status epilepticus prevention: result ([10]; at 40 mg/kg): no activity

Which IC50 [1] does the source give for `CCC(CO)NCCOc1c(C)cccc1Cl` (stereo not shown) [KM-408, R,S-2-((2-(2-chloro-6-methylphenoxy)ethyl)amino)butan-1-ol hydrochloride] here?
Its IC50 is 15 µM.

What about the Ki [1] of the same compound?
Its Ki is 14 µM.

And the “% of control specific binding” value ([1]; 0.3 μM)?
Its value is 101.1%.

What about the “% of control specific binding” value ([1]; 3 μM) of the same compound?
Its value is 92.0%.

What about the “% of control specific binding” value ([1]; 30 μM) of the same compound?
Its value is 40.3%.

What about the “MES TPE” value ([2]; mice, ip) of the same compound?
The value was 0.25 h.

What about the “% of effect (II phase)” value ([11]; 30.0 mg/kg) of the same compound?
The value was 26.6%.

What about the “Time of licking paw ± SEM (I phase)” value ([11]; 30.0 mg/kg) of the same compound?
Its value is 60.6 ± 8.0 s.

What about the “Time of licking paw ± SEM (II phase)” value ([11]; 30.0 mg/kg) of the same compound?
The value was 22.4 ± 6.5 s.

What about the “formalin test (I phase): active at” value [11] of the same compound?
The value was 30 mg/kg.

What about the “Hippocampal kindling: death at” value ([4]; […]) of the same compound?
Its value is 200 mg/kg.

What about the “6 Hz TPE” value ([6]; 32 mA, ip) of the same compound?
Its value is 0.25 h.

And the “6 Hz TPE” value ([6]; 44 mA, ip)?
The value was 0.25 h.

And the “6 Hz TPE” value ([6]; 44 mA, po)?
Its value is 0.25 h.

What about the ED50 ([6]; ip, 32 mA) of the same compound?
The ED50 was 29.4 mg/kg.

What about the ED50 ([6]; ip, 44 mA) of the same compound?
Its ED50 is 35.1 mg/kg.

What about the ED50 ([6]; po, 44 mA) of the same compound?
Its ED50 is 281 mg/kg.

What about the Rate constant k [12] of the same compound?
The Rate constant k was 0.83·10^–3 h^−1.

What about the t0.1 [12] of the same compound?
Its t0.1 is 127.0 h.

What about the half-life at 5 mg/mL ([12]; borate buffer with 20% v/v 1,4-dioxane, pH 9.9, read-out: Half-life t0.5 (converted)) of the same compound?
The half-life at 5 mg/mL was 34.8 days.

What about the IC50 [7] of the same compound?
Its IC50 is 2400 nM.

And the Ki [7]?
The Ki was 1200 nM.

And the remaining activity at 0.001 µM ([7]; 0.001 μM, read-out: % of control specific binding)?
Its remaining activity at 0.001 µM is 130%.

And the remaining activity at 0.01 µM ([7]; 0.01 μM, read-out: % of control specific binding)?
Its remaining activity at 0.01 µM is 121%.

What about the remaining activity at 0.1 µM [7, 15] of the same compound?
Its remaining activity at 0.1 µM is 103%.

And the remaining activity at 1 µM [7, 16]?
Its remaining activity at 1 µM is 88%.

What about the remaining activity at 10 µM [7, 17] of the same compound?
Its remaining activity at 10 µM is 28.3%.

And the IC50 [8]?
The IC50 was 24 µM.

And the Ki [8]?
The Ki was 15 µM.

What about the remaining activity at 0.1 µM [8, 15] of the same compound?
Its remaining activity at 0.1 µM is 98%.

What about the remaining activity at 1 µM [8, 16] of the same compound?
Its remaining activity at 1 µM is 92%.

What about the remaining activity at 3 µM [8, 18] of the same compound?
Its remaining activity at 3 µM is 82.7%.

What about the remaining activity at 10 µM [8, 17] of the same compound?
The remaining activity at 10 µM was 67%.

And the remaining activity at 100 µM ([8]; 100 μM, read-out: % of control specific binding)?
The remaining activity at 100 µM was 23.8%.

And the IC50 [9]?
The IC50 was 3.6 µM.

What about the Ki [9] of the same compound?
Its Ki is 1700 nM.

What about the remaining activity at 0.003 µM ([9]; 0.003 μM, read-out: % of control specific binding) of the same compound?
Its remaining activity at 0.003 µM is 105%.

And the remaining activity at 0.03 µM ([9]; 0.03 μM, read-out: % of control specific binding)?
Its remaining activity at 0.03 µM is 112%.

What about the remaining activity at 0.3 µM ([9]; 0.3 μM, read-out: % of control specific binding) of the same compound?
Its remaining activity at 0.3 µM is 92.8%.

What about the remaining activity at 3 µM [9, 18] of the same compound?
Its remaining activity at 3 µM is 61%.

What about the remaining activity at 30 µM ([9]; 30 μM, read-out: % of control specific binding) of the same compound?
Its remaining activity at 30 µM is 11.5%.

What about the solubility ([13]; 20% dioxane) of the same compound?
Its solubility is “dissolved fully”.

And the solubility ([13]; 20% ethanol)?
The solubility was “dissolved fully”.

What about the solubility ([13]; DMSO above 30%) of the same compound?
Its solubility is “full solubility has not been achieved”.

And the IC50 ([14]; 10 Hz)?
The IC50 was 15.4 µM.

What about the IC50 ([14]; Inactivated state) of the same compound?
The IC50 was under 10 µM.

And the IC50 ([14]; Tonic block)?
Its IC50 is 52 µM.
